Source: patent US20260007681A1, “INDOLE DERIVATIVES AS ESTROGEN RECEPTOR DEGRADERS” (REGENTS OF THE UNIVERSITY OF MICHIGAN, priority 2022, published 2026)
pIC50: −log10 of the molar value. Where two headings read alike, the source gives them in different places.

Columns and labels:
[1] = target: ER (Homo sapiens (Human), UniProt P03372); test: In-cell western blot analysis of relative ER percentage (Compounds B1-B278); assay type: cell-based; conditions: ER degradation, 16 hours, read-out: ICW DC50
Procedure: In-cell western blot analysis. Cells are seeded in multi-well plates (e.g., at 40,000 or 10,000 cells/well). Diluted compounds at certain concentration are added (final 0.5% DMSO) and cells are incubated for […] (e.g., 16 hours). Formaldehyde (e.g., PBS:FA=9:1) is added and followed by washing with PBS. The cells are blocked with Licor blocking buffer (Li-Cor). The relative ER percentage in treated cells are obtained by comparing the values of treated wells to those in untreated and DMSO-treated wells as 100%.
In-cell western blot analysis. a. seed cells in black-sided/clear bottom 96- or 384-well plates at 40,000 or 10,000 cells/well, overnight; b. add diluted compounds (final 0.5% DMSO), 16 hours. 16 h later, remove medium, add 100 μL or 25 μL of 3.7-4.0% formaldehyde (PBS:FA=9:1), RT 20 min, no shaking; c. wash with PBS, and permeabilized with 100 μL or 25 μL/well of 1×PBS+0.1% Triton X-100 10 minutes; d. block with 100 μL or 25 μL Licor blocking buffer (Li-Cor), RT 1 h, moderate shaking; d. Add 100 μL or 25 μL of anti-ER (cs-8644, 1:500-1,000)+GAPDH(Millipore MAB374, 1:1000) in Block+0.05% Tween 20. RT 2 h, gentle shaking. Negative control: cells plus secondary antibodies (no primary antibodies); e. wash×4 with PBS +0.05-0.1% Tween 20, gentel shaking; f. anti-rabbit-680 and anti-mouse-800 (both 1:1000 in LiCor block +0.05% Tween20, RT 1 h, gentle shaking, no light. LI-COR: 0.2% to reduce background; g. wash×4 with PBS+0.05% Tween 20, gental shaking; h. add 100 μL or 25 μL of PBS to each well and read on CLX plate reader. The relative ER percentage in treated cells were obtained by comparing the values of treated wells to those in untreated and DMSO-treated wells as 100%.

[2] = Cell growth assay (WST-8) (Compounds B1-B278); assay type: cell-based; conditions: T47D cell line, WST-8, 4 days, read-out: Cell Growth Inhibition in T47D cell line IC50
Procedure: Cell Growth Assay. The cells are seeded at certain concentration (e.g., at 1500/well) in multi-well plates overnight. Cells are subsequently treated with the compounds. A certain period of time (e.g., 4 days) after the compound treatment, 10% WST-8 reagent is added to the culture medium and incubate under certain condiction (e.g., in a CO2 incubator at 37° C. for 2.5 hours). The absorbance is measured on each sample using a microplate reader at certain wavelength (e.g., 450 nm). The relative absorbance is calculated against the vehicle control from three individually repeats.
Cell Growth Assay. The cells were seeded at 1500/well in 96 well plates overnight. One day after the seeding, they were treated with indicated doses of compounds respectively. 4 days after the compound treatment, 10% WST-8 reagent was added to the culture medium and incubate in a CO2 incubator at 37° C. for 2.5 hours. Before reading, the plate was mixed gently on an orbital shaker for one minute to ensure homogeneous distribution of color. The absorbance was measured of each sample using a microplate reader at a wavelength of 450 nm. The relative absorbance was calculated against the vehicle control from three individually repeats.

Chain of ER (P03372 whole entry): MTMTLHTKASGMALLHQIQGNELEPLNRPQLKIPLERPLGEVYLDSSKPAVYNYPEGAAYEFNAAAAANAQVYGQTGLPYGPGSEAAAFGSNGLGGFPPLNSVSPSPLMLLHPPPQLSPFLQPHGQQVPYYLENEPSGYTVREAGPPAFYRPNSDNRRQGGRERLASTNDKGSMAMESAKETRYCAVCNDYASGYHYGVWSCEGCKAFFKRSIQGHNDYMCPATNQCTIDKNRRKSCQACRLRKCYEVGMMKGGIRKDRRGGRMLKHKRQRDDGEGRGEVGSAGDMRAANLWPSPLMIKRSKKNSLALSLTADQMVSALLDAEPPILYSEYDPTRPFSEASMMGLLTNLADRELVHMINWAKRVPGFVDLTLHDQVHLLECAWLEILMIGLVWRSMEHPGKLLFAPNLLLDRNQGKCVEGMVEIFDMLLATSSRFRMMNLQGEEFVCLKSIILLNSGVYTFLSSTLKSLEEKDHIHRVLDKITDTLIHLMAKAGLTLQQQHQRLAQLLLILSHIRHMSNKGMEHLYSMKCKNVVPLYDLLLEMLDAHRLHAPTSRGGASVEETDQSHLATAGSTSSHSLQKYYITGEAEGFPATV

SMILES | DC50 [1] [nM] | pIC50 ([2]; 96 h) | pIC50 [2]
C[C@@H]1Cc2c([nH]c3ccccc23)[C@@H](c2c(F)cc(N3CC(C(=O)N4CCN5c6ccc7c(c6OC[C@H]5C4)CN(C4CCC(=O)NC4=O)C7=O)C3)cc2F)N1CC(F)F (mixture of isomers) [Compound B251, 3-((RS)-7-(1-(4-((1R,3R)-2-(2,2-difluoroethyl)-3-methyl-2,3,4,9-tetrahydro-1H-pyrido[3,4-b]indol-1-yl)-3,5-difluorophenyl)azetidine-3-carbonyl)-1-oxo-1,3,5,5a,6,7,8,9-octahydro-2H-pyrazino[1′,2′:4,5][1,4]oxazino[2,3-e]isoindol-2-yl)piperidine-2,6-dione] | 10 to 100 | > 9.00 | 
C[C@@H]1Cc2c([nH]c3ccccc23)[C@@H](c2c(F)cc(N3CCC(C(=O)N4CCN5c6ccc7c(c6OC[C@H]5C4)CN(C4CCC(=O)NC4=O)C7=O)CC3)cc2F)N1CC(C)(F)F (mixture of isomers) [Compound B252, 3-((RS)-7-(1-(4-((1R,3R)-2-(2,2-difluoropropyl)-3-methyl-2,3,4,9-tetrahydro-1H-pyrido[3,4-b]indol-1-yl)-3,5-difluorophenyl)piperidine-4-carbonyl)-1-oxo-1,3,5,5a,6,7,8,9-octahydro-2H-pyrazino[1′,2′:4,5][1,4]oxazino[2,3-e]isoindol-2-yl)piperidine-2,6-dione] | 10 to 100 |  | 
C[C@@H]1Cc2c([nH]c3ccccc23)[C@@H](c2c(F)cc(N3CCC(CN4CCN5c6ccc7c(c6OC[C@H]5C4)CN(C4CCC(=O)NC4=O)C7=O)CC3)cc2F)N1CC(C)(C)F (mixture of isomers) [Compound B257, 3-((RS)-7-((1-(3,5-difluoro-4-((1R,3R)-2-(2-fluoro-2-methylpropyl)-3-methyl-2,3,4,9-tetrahydro-1H-pyrido[3,4-b]indol-1-yl)phenyl)piperidin-4-yl)methyl)-1-oxo-1,3,5,5a,6,7,8,9-octahydro-2H-pyrazino[1′,2′:4,5][1,4]oxazino[2,3-e]isoindol-2-yl)piperidine-2,6-dione] | 10 to 100 | > 9.00 | 
C[C@@H]1Cc2c([nH]c3ccccc23)[C@@H](c2c(F)cc(N3CCN(CC(=O)N4CCN5c6ccc7c(c6OC[C@H]5C4)CN(C4CCC(=O)NC4=O)C7=O)CC3)cc2F)N1CC(F)F (stereo partly drawn) [Compound B152, 3-((R)-7-(2-(4-(4-((1R,3R)-2-(2,2-difluoroethyl)-3-methyl-2,3,4,9-tetrahydro-1H-pyrido[3,4-b]indol-1-yl)-3,5-difluorophenyl)piperazin-1-yl)acetyl)-1-oxo-1,3,5,5a,6,7,8,9-octahydro-2H-pyrazino[1′,2′:4,5][1,4]oxazino[2,3-e]isoindol-2-yl)piperidine-2,6-dione] | > 100 |  | 
COc1cc(N2CCC3(CC2)CC(CN2CCN4c5ccc6c(c5OC[C@H]4C2)CN(C2CCC(=O)NC2=O)C6=O)CO3)ccc1[C@@H]1c2[nH]c3ccccc3c2C[C@@H](C)N1CC(C)(C)F (stereo partly drawn) [Compound B265, 3-((5aR)-7-((8-(4-((1R,3R)-2-(2-fluoro-2-methylpropyl)-3-methyl-2,3,4,9-tetrahydro-1H-pyrido[3,4-b]indol-1-yl)-3-methoxyphenyl)-1-oxa-8-azaspiro[4.5]decan-3-yl)methyl)-1-oxo-1,3,5,5a,6,7,8,9-octahydro-2H-pyrazino[1′,2′:4,5][1,4]oxazino[2,3-e]isoindol-2-yl)piperidine-2,6-dione] | 10 to 100 |  | 

The next lines start with results.

DC50 [1] [nM] | SMILES | pIC50 ([2]; 96 h) | pIC50 [2]
10 to 100 | C[C@@H]1Cc2c([nH]c3ccccc23)[C@@H](c2c(F)cc(N3CCC(CN4CCN5c6ccc7c(c6OC[C@H]5C4)CN(C4CCC(=O)NC4=O)C7=O)CC3)cc2F)N1CC(F)F (mixture of isomers) [Compound B253, 3-((RS)-7-((1-(4-((1R,3R)-2-(2,2-difluoroethyl)-3-methyl-2,3,4,9-tetrahydro-1H-pyrido[3,4-b]indol-1-yl)-3,5-difluorophenyl)piperidin-4-yl)methyl)-1-oxo-1,3,5,5a,6,7,8,9-octahydro-2H-pyrazino[1′,2′:4,5][1,4]oxazino[2,3-e]isoindol-2-yl)piperidine-2,6-dione] | > 9.00 | 
10 to 100 | C[C@@H]1Cc2c([nH]c3ccccc23)[C@@H](c2cnc(N3CCC(CN4CCN5c6ccc7c(c6OC[C@H]5C4)CN(C4CCC(=O)NC4=O)C7=O)CC3)nc2)N1CC(F)F (mixture of isomers) [Compound B254, 3-((RS)-7-((1-(5-((1R,3R)-2-(2,2-difluoroethyl)-3-methyl-2,3,4,9-tetrahydro-1H-pyrido[3,4-b]indol-1-yl)pyrimidin-2-yl)piperidin-4-yl)methyl)-1-oxo-1,3,5,5a,6,7,8,9-octahydro-2H-pyrazino[1′,2′:4,5][1,4]oxazino[2,3-e]isoindol-2-yl)piperidine-2,6-dione] | > 9.00 | 
> 100 | C[C@@H]1Cc2c([nH]c3ccccc23)[C@@H](c2cnc(N3CCC(CN4CCN5c6ccc7c(c6OC[C@H]5C4)CN(C4CCC(=O)NC4=O)C7=O)CC3)nc2)N1CC(F)F (mixture of isomers) [Compound B255, 3-((RS)-7-((1-(5-((1R,3R)-2-(2,2-difluoroethyl)-3-methyl-2,3,4,9-tetrahydro-1H-pyrido[3,4-b]indol-1-yl)pyrimidin-2-yl)piperidin-4-yl)methyl)-1-oxo-1,3,5,5a,6,7,8,9-octahydro-2H-pyrazino[1′,2′:4,5][1,4]oxazino[2,3-e]isoindol-2-yl)piperidine-2,6-dione] |  | > 9.00
> 100 | C[C@@H]1Cc2c([nH]c3ccccc23)[C@@H](c2cnc(N3CCC(CN4CCN5c6ccc7c(c6OC[C@H]5C4)CN(C4CCC(=O)NC4=O)C7=O)CC3)nc2)N1CC(C)(C)F (mixture of isomers) [Compound B256, 3-((RS)-7-((1-(5-((1R,3R)-2-(2-fluoro-2-methylpropyl)-3-methyl-2,3,4,9-tetrahydro-1H-pyrido[3,4-b]indol-1-yl)pyrimidin-2-yl)piperidin-4-yl)methyl)-1-oxo-1,3,5,5a,6,7,8,9-octahydro-2H-pyrazino[1′,2′:4,5][1,4]oxazino[2,3-e]isoindol-2-yl)piperidine-2,6-dione] | > 9.00 | 
> 100 | C[C@@H]1Cc2c([nH]c3ccccc23)[C@@H](c2c(F)cc(N3CCC(CN4CCN5c6ccc7c(c6OC[C@H]5C4)CN(C4CCC(=O)NC4=O)C7=O)CC3)cc2F)N1CC(C)(C)F (mixture of isomers) [Compound B259, 3-((RS)-7-((1-(3,5-difluoro-4-((1R,3R)-2-(2-fluoro-2-methylpropyl)-3-methyl-2,3,4,9-tetrahydro-1H-pyrido[3,4-b]indol-1-yl)phenyl)piperidin-4-yl)methyl)-1-oxo-1,3,5,5a,6,7,8,9-octahydro-2H-pyrazino[1′,2′:4,5][1,4]oxazino[2,3-e]isoindol-2-yl)piperidine-2,6-dione] |  | > 9.00
10 to 100 | C[C@@H]1Cc2c([nH]c3ccccc23)[C@@H](c2cnc(N3CCC(OCCN4CCN5c6cc7c(cc6OC[C@@H]5C4)C(=O)N([C@H]4CCC(=O)NC4=O)C7)CC3)nc2)N1CC(F)F [Compound 1B24, (S)-3-((S)-3-(2-((1-(5-((1R,3R)-2-(2,2-difluoroethyl)-3-methyl-2,3,4,9-tetrahydro-1H-pyrido[3,4-b]indol-1-yl)pyrimidin-2-yl)piperidin-4-yl)oxy)ethyl)-8-oxo-1,2,3,4,4a,5,8,10-octahydro-9H-pyrazino[1,2′:4,5][1,4]oxazino[2,3-f]isoindol-9-yl)piperidine-2,6-dione] | 8.00 to 9.00 | 
10 to 100 | C[C@@H]1Cc2c([nH]c3ccccc23)[C@@H](c2c(F)cc(-c3ncc(C(=O)N4CCN5c6cc7c(cc6OC[C@@H]5C4)C(=O)N([C@H]4CCC(=O)NC4=O)C7)cn3)cc2F)N1CC(F)F [Compound B117, (S)-3-((S)-3-(2-(4-((1R,3R)-2-(2,2-difluoroethyl)-3-methyl-2,3,4,9-tetrahydro-1H-pyrido[3,4-b]indol-1-yl)-3,5-difluorophenyl)pyrimidine-5-carbonyl)-8-oxo-1,2,3,4,4a,5,8,10-octahydro-9H-pyrazino[1′,2′:4,5][1,4]oxazino[2,3-f]isoindol-9-yl)piperidine-2,6-dione] | 8.00 to 9.00 | 
